How the values were obtained:
[1] = system: Salmonella typhimurium strain TA98; assay: AMES mutagenic assay, TA98 strain; conditions: TA98, presence of S-9, 1 μg per well (positive control)
Experimental: (§1) Mutagenic activity of test compounds and their metabolites (produced by rat liver S9 fraction) was evaluated in the Salmonella typhimurium strains TA100 and TA98 according to the Ames assay (Toxicology in vitro, (2001), 15: 105-114). […] The results are expressed as a mutagenicity ratio in comparison to solvent controls.
(§2) The results are expressed as a ratio of the number of colonies over the number of colonies in the negative control (DMSO).

[2] = system: Salmonella typhimurium strain TA100; conditions: Salmonella typhimurium
Experimental: as §1, §2

[3] = biological target: c-Ret mut; assay: HTRF kinase assay, c-Ret mut; type: biochemical; conditions: enzymatic determination
Experimental: Most of the kinases tested in this study were cloned, expressed and purified in the facilities of the inventors. They were expressed either as N-terminus hexahistidine-, hexahistidine-asparagine- or GST-tagged enzymes in a baculovirus or in a Colibacille expression system. Remaining enzymes (JAKs) were purchased from Millipore or Proqinase. For each enzyme, steady state kinetic parameters were determined and validated with known inhibitors.
The analysis of the effect of compounds on kinase activity was assessed with the HTRF® KinEASE assay (Cisbio International), an immuno-assay based on the quantification of the level of phosphorylation of a biotinylated peptide substrate using anti-phospho-specific antibody labeled with Europium (Eu^3+) cryptate. This assay comprises two steps: —an enzymatic step, during which the peptide substrate, the kinase, ATP, Mg^2+ and/or Mn^2+ are incubated with varying concentration of drug (from 0 to 10 μM); —a detection step, at the end of the reaction (stopped by addition of EDTA which chelates Mg^2+), the antibody anti-phospho peptide-Eu^3+ (emission 620 nm) and streptavidin XL-665 (emission 665 nm) are added to the reaction mix. […] Results are expressed in delta fluorescence (DF) unit defined as follow DF %=[(ratio−ratio blank)/(ratio blank)]*100, where ratio=(665 nm/620 nm)*10^4. […]

[4] = system: Murine bone marrow mast cells (BMMCs); assay: IgE-mediated mast cell degranulation assay (β-hexosaminidase release); type: cell-based, C57BL/6J mice
Experimental: In vitro mast cell degranulation assay monitored by released of β-hexosaminidase. Murine bone marrow mast cells (BMMCs) are obtained by flushing bone marrow cells from the femurs of C57BL/6J mice, then cultured for 3-4 weeks in RPMI containing mouse recombinant IL-3 (30 ng/ml). RBL-2H3 is a rat basophile cell line maintained in monolayer culture in EMEM supplemented with 20% FCS, 1 mM Glutamine and 1× antibiotics. Cells were sensitized overnight with 0.2 μg/ml anti-DNP-IgE (Sigma-Aldrich D8406). […] After incubation 90 min at 37° C., the reaction was quenched by addition of 100 μl of sodium carbonate buffer (0.1M Na2CO3/NaHCO3 pH 10.0). β-hexosaminidase activity was quantified by reading plate absorbance at 405 nm with reference at 620 nm using a PolarSTAR reader plate (BMG labech).
The activity of anti-SYK compounds was tested in an IgE-mediated mast cell degranulation assay. SYK has been identified to be critical for the initiation of mast cell mediator release following the aggregation of FcεRI.

[5] = system: murine model of asthma; assay: Mouse model of asthma: eosinophils recruitment in bronchio-alveolar lavage; type: in vivo, Balb/c male mice
Experimental: Balb/c male mice, 8 weeks old, were purchased from Janvier (Le Genest-Saint-Isle; FRANCE) and bred in the animal facility for 4 weeks. Drugs were dissolved in drinking solvent (80% water; 10% Tween 80 and 10% isopropanediol). It was aliquoted and stored at −20° C. Each mouse received drugs twice a day. The weight of animals was calculated before and after treatment.
Mice, 9 weeks of age, were sensitized with 50 μg of ovalbumin (Sigma-Aldrich, Germany) adsorbed to 2 mg Al(OH)3 (Prolabo, France) and diluted in physiological saline (0.9% NaCl). Ovalbumin was injected intraperitoneally on days 1 and 7. Sensitization was followed by intranasal challenges with 10 μg of ovalbumin diluted in 0.9% NaCl, each day from day 18 to day 21. On days 17 to 21, animals treated with drugs received 100 μl of a solution at 15 mg/ml, at 7.5 mg/ml or at 3.75 mg/ml administered per os twice a day during 5 days. These treatments corresponded to concentration of 60 mg/mouse kg, 30 mg/mouse kg and 15 mg/mouse kg respectively.
Bronchio-alveolar lavage (BAL) was performed after the animals were disconnected from the FlexiVent®. The airways were lavaged with 5 ml (10 times 0.5 ml) ice cold 0.9% NaCl 2.6 mM EDTA. BAL samples were centrifuged at 1200 rpm for 5 minutes at 4° C. Pellet cells were collected and erythrocytes lysed by adding 1.5 ml deionized water for 30 seconds. After neutralization with 0.5 ml of 0.6M KCl, cells were centrifuged at 1200 rpm for 5 minutes at 4° C. BAL samples were used to count the total cell number and to perform cytospins (shandon, Pontoise). Cell types were identified by morphological criteria after Hemacolor (Merck) staining.
Mice were sensitized and challenged with ovalbumin as described in protocol assays above. The mice were distributed in groups of 5-6 animals that were treated twice daily with 7.5 to 60 mg/Kg of anti-SYK/KIT drugs (PO).

[6] = system: primary human adult cardiomyocytes; assay: WST-1 cell survival/proliferation assay on human cardiomyocytes; type: cell-based; conditions: Human Cardiac Myocyte
Experimental: WST-1 cell survival/proliferation assay (Roche Diagnostic ref No 1644807) was performed on both primary human adult cardiomyocytes and rat neonatal cardiac myocytes.
Human cardiomyocytes were isolated from normal human ventricle tissue of the adult heart and were able to proliferate for a number of passage. Neonatal ventricular Clonetics® Rat Cardiac Myocytes (P1-3) retained their contractile property and were electrophysiologically active in culture. 1.10^4 primary rat cells or 2-2.5 10^4 adult human cells were plated per well of a 96 wells plates. The cells were allowed to adhere to the plates for 5 days before drug treatment. Treatment was initiated by addition of a 2× drug solution of ½ serial dilutions ranging from 0 to 10 μM. Cells were grown for 48 h at 37° C. and then incubated with 10 μl/well of WST-1 reagent for 4 h at 37° C. The amount of formazan dye formed was quantified by its absorbance at 450 nm using a scanning multiwell spectrophotometer (MultiSkan MS, Thermo-LabSystems, France). A blank well without cells was used as a background control for the spectrophotometer and all assays were performed in triplicate.

[7] = system: murine model of arthritis; assay: K/BxN serum mouse model of rheumatoid arthritis: ankle thickening and arthritis score; type: in vivo, C57Bl/6 mice; conditions: 50 mg/kg b.i.d.
Experimental: K/B×N serum pools were prepared from arthritic mice at 8 weeks of age. The mice were pre-treated with SYK inhibitors by two per os administration for two days before induction of arthritis. Arthritis was induced in the C57Bl/6 mice (8 weeks of age) by intraperitoneal injection (7.5 μl serum per g weight) at days 0 and 2.
The treatment with SYK inhibitors was continued for 13 days. The control mice were injected with solvent before the induction of arthritis and during the course of the disease. The compounds were dissolved in a solution containing 10% of Tween 80 and 10% 1-2 propandiol. It was prepared before administration.
Ankle thickening measure, being defined as the difference in ankle thickness from the day 0, was measured using a precision calliper. Arthritis/clinical score was defined by sum of scores of each lim (0 no disease; 1 mild swelling of paw or of just of few digits; 2 clear joint inflammation; 3 severe joint inflammation) maximum score=12.
K/B×N was a murine model of spontaneous rheumatoid arthritis that mimics many of the clinical and histological features of human disease with synovitis predominantly in the distal small joints. Arthritis was induced by intraperitoneal injection of arthritis serum of K/B×N mice at days 0 and 2 as described in protocol assays above. Compound 001 was tested at 15 and 50 mg/kg/day b.i.d. and compared with Masitinib at 50 mg/kg/day b.i.d., an AB Science drug candidate for treating rheumatoid arthritis (Arthritis Res Ther., (2009), 11(3):R95). Ankle thickening and arthritis score were used to monitor the in vivo activity of the compounds.

[8] = Experiment #1, 2 × 30 mg/kg/day PO

## Nc1ccc2cc3ccccc3cc2c1 [Compound 2-AM, 2-Anthramine, reference compound]
[1]
  Ratio treated/solvent: 138.1
[2]
  Ratio treated/solvent: 18.1

## COc1cc(Nc2ncc(F)c(Nc3ccc4c(n3)NC(=O)C(C)(C)O4)n2)cc(OC)c1OC [Compound R406]
[3]
  IC50: 500 nM
[4]; 0.01 μM
  β-hexosaminidase activity (% control untreated cells): 78 ± 11%
[4]; 0.1 μM
  β-hexosaminidase activity (% control untreated cells): 16 ± 6%
[4]; 1 μM
  β-hexosaminidase activity (% control untreated cells): 3 ± 3%
[5]; [8]
  Percentage of Eosinophils recruitment in Bronchio-alveolar lavage (BAL): −31%
[6]; 1 μM
  % cell viable at 1 μM, Hu-CM: −18%
[6]; 48 h, read-out: Drug-induced cytotoxicity IC50, Hu-CM
  IC50: 2600 nM

## Cc1ccc(NC(=O)c2ccc(CN3CCN(C)CC3)cc2)cc1Nc1nc(-c2cccnc2)cs1 [Masitinib]
[5]; Experiment #1, 2 × 7.5 mg/kg/day PO
  Percentage of Eosinophils recruitment in Bronchio-alveolar lavage (BAL): −15%
[5]; Experiment #1, 2 × 25 mg/kg/day PO
  Percentage of Eosinophils recruitment in Bronchio-alveolar lavage (BAL): −35%
[5]; [8]
  Percentage of Eosinophils recruitment in Bronchio-alveolar lavage (BAL): −56%
[5]; Experiment #2, 2 × 30 mg/kg/day PO
  Percentage of Eosinophils recruitment in Bronchio-alveolar lavage (BAL): −47%
[7]
  Ankle Thickening Score: −27% P < 0.05
  Arthritis Score: −15%

Source: patent US10053455B2, “Diazaspiroalkaneone-substituted oxazole derivatives as spleen tyrosine kinase inhibitors” (AB SCIENCE, priority 2014, dated 2018)
